Assay results reported in article PMC12162337, “Vitexicarpin suppresses colorectal and non-small cell lung cancer via selective inhibition of Anoctamin 1” (Frontiers in Pharmacology, 2025).

Assays:
Type in all cases: cell-based
CFTR = target: T1, CFTR (Homo sapiens, UniProt P13569); experiment: short-circuit current (Ussing chamber), forskolin-activated; complete block at […]
T1 construct: CFTR-expressing FRT cells

hERG channel = target: T2, hERG channel (Homo sapiens, UniProt Q12809); experiment: automated patch clamp (PatchLiner), hERG tail current
T2 construct: gene KCNH2; hERG-overexpressing HEK cells
T2 sequence (Q12809 whole entry): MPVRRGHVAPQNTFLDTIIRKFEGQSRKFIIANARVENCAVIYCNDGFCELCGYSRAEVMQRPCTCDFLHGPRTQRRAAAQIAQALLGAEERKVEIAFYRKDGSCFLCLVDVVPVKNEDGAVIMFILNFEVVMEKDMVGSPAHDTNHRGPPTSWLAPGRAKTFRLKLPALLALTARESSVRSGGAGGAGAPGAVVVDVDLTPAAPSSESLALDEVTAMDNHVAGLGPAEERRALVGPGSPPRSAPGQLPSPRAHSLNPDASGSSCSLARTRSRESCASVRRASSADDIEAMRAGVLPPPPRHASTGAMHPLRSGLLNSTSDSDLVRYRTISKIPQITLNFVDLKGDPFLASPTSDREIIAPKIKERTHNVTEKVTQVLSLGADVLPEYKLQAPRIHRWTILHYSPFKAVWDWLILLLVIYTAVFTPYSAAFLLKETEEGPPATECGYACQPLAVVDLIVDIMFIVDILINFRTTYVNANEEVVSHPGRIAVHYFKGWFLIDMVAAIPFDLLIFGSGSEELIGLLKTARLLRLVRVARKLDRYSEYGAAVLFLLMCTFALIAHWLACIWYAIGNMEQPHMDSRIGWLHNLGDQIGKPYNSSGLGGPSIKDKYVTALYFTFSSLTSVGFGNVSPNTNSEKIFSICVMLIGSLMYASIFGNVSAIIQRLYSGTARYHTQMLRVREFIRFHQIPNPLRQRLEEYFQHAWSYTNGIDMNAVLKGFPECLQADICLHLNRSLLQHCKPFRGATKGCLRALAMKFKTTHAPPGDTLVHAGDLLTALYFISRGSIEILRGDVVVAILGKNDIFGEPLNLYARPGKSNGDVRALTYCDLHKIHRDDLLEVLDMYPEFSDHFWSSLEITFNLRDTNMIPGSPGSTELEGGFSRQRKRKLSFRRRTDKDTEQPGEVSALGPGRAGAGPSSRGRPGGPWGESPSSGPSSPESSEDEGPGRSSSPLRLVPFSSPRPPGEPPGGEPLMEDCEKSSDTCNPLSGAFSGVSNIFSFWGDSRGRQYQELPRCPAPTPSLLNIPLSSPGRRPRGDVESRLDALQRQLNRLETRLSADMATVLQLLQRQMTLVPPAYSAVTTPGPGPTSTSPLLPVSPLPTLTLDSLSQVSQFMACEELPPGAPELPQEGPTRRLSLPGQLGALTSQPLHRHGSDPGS

[1] = target: T3, Anoctamin 1 (ANO1, TMEM16A) (Homo sapiens, UniProt Q5XXA6); experiment: YFP iodide-influx quenching assay and short-circuit current (Ussing chamber)
T3 construct: endogenous ANO1 in PC9-YFP cells; ANO1-expressing FRT cells
T3 sequence (Q5XXA6 1-986): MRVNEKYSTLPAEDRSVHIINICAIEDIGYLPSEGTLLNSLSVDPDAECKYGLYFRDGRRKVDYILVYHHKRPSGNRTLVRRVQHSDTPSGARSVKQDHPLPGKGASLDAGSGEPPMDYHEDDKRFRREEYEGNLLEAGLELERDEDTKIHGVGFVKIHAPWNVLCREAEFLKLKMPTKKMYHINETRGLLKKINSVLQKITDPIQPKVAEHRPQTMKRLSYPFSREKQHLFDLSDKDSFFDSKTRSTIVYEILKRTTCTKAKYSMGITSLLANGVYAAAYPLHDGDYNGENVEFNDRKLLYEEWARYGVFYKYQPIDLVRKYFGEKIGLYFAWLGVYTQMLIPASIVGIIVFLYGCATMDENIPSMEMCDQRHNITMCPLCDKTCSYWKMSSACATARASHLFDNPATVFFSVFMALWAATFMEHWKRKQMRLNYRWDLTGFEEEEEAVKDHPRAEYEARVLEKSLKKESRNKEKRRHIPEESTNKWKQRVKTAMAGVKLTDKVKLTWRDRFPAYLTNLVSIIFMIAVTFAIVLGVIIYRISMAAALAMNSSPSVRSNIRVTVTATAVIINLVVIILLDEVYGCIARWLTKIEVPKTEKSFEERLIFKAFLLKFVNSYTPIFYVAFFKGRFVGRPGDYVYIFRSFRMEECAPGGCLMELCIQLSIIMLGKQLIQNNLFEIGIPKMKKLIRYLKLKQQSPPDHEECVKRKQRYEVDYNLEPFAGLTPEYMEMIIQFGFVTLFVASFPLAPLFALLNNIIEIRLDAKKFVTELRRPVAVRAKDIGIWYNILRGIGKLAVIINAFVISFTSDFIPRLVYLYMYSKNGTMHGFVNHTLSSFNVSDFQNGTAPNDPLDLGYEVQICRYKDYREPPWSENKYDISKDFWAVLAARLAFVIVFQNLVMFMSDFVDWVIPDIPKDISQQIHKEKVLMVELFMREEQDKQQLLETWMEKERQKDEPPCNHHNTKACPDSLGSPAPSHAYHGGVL

T1 sequence (P13569 whole entry): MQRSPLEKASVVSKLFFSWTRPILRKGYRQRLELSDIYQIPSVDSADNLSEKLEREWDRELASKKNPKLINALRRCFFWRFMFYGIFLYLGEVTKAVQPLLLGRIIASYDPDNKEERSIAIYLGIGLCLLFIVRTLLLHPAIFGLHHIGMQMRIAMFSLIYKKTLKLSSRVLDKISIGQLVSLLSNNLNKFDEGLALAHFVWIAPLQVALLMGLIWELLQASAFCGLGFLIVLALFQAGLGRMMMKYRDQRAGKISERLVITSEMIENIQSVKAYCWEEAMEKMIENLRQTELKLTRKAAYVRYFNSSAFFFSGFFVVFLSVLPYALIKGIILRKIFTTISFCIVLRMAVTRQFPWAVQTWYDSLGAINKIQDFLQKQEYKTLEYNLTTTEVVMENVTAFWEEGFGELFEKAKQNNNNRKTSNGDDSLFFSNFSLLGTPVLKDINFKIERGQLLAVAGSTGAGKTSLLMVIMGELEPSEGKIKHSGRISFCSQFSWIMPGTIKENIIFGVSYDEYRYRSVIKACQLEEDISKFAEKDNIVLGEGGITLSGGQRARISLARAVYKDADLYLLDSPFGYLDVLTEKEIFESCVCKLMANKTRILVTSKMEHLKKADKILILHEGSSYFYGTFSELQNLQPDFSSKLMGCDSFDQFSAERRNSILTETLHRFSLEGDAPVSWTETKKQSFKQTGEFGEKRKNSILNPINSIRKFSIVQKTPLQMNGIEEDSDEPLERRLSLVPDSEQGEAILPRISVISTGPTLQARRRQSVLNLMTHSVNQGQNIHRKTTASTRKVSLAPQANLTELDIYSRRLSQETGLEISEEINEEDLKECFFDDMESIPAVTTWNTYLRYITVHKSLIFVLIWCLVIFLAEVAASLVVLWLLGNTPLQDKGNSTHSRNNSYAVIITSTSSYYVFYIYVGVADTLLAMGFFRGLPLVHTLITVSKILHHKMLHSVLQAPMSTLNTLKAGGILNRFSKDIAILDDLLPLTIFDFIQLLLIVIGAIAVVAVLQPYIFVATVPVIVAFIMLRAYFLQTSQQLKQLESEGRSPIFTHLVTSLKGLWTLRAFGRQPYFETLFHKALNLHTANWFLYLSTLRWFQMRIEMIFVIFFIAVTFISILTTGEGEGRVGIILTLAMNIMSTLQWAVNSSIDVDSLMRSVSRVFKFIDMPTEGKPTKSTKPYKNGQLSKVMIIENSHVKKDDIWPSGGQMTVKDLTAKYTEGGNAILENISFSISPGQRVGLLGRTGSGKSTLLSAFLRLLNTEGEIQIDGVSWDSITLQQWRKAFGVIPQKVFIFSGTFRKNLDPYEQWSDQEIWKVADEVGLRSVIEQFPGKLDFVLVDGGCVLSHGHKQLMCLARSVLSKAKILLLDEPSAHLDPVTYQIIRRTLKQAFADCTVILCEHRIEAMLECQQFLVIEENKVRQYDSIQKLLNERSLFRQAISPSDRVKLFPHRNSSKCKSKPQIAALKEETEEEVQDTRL

Row | short-circuit current (Ussing chamber), forskolin-activated; complete block at 1 (CFTR) | SMILES | IC50 (hERG channel) | YFP iodide-influx quenching assay and short-circuit current (Ussing chamber) [1]
1 | 10 µM | O=C(O)c1ccc(/C=C2\SC(=S)N(c3cccc(C(F)(F)F)c3)C2=O)cc1 [CFTRinh-172] | – | –
2 | – | COc1ccc(-c2oc3cc(OC)c(OC)c(O)c3c(=O)c2OC)cc1O [vitexicarpin, 3′,5-dihydroxy-3,4′,6,7-tetramethoxyflavone] | 35.4 µM | vitexicarpin inhibited ANO1 activation in a dose-dependent manner (Figure 2A)
